Measured values published in ChEMBL document CHEMBL4145544, “Discovery and optimization of 1-(1H-indol-1-yl)ethanone derivatives as CBP/EP300 bromodomain inhibitors for the treatment of castration-resistant prostate cancer” (Eur J Med Chem, 2018).

Columns and labels:
CREB-binding protein = CREB-binding protein (Homo sapiens, UniProt Q92793); test: Inhibition of biotinylated-H4KAc4 binding to human His6-tagged CBP (R1081 to G1197 residues) expressed in Escherichia coli BL21(DE3) after 2.5 hrs by luminescence-based AlphaScreen assay
CREB-binding protein, sequence (Q92793 whole entry, the tested form may be a part): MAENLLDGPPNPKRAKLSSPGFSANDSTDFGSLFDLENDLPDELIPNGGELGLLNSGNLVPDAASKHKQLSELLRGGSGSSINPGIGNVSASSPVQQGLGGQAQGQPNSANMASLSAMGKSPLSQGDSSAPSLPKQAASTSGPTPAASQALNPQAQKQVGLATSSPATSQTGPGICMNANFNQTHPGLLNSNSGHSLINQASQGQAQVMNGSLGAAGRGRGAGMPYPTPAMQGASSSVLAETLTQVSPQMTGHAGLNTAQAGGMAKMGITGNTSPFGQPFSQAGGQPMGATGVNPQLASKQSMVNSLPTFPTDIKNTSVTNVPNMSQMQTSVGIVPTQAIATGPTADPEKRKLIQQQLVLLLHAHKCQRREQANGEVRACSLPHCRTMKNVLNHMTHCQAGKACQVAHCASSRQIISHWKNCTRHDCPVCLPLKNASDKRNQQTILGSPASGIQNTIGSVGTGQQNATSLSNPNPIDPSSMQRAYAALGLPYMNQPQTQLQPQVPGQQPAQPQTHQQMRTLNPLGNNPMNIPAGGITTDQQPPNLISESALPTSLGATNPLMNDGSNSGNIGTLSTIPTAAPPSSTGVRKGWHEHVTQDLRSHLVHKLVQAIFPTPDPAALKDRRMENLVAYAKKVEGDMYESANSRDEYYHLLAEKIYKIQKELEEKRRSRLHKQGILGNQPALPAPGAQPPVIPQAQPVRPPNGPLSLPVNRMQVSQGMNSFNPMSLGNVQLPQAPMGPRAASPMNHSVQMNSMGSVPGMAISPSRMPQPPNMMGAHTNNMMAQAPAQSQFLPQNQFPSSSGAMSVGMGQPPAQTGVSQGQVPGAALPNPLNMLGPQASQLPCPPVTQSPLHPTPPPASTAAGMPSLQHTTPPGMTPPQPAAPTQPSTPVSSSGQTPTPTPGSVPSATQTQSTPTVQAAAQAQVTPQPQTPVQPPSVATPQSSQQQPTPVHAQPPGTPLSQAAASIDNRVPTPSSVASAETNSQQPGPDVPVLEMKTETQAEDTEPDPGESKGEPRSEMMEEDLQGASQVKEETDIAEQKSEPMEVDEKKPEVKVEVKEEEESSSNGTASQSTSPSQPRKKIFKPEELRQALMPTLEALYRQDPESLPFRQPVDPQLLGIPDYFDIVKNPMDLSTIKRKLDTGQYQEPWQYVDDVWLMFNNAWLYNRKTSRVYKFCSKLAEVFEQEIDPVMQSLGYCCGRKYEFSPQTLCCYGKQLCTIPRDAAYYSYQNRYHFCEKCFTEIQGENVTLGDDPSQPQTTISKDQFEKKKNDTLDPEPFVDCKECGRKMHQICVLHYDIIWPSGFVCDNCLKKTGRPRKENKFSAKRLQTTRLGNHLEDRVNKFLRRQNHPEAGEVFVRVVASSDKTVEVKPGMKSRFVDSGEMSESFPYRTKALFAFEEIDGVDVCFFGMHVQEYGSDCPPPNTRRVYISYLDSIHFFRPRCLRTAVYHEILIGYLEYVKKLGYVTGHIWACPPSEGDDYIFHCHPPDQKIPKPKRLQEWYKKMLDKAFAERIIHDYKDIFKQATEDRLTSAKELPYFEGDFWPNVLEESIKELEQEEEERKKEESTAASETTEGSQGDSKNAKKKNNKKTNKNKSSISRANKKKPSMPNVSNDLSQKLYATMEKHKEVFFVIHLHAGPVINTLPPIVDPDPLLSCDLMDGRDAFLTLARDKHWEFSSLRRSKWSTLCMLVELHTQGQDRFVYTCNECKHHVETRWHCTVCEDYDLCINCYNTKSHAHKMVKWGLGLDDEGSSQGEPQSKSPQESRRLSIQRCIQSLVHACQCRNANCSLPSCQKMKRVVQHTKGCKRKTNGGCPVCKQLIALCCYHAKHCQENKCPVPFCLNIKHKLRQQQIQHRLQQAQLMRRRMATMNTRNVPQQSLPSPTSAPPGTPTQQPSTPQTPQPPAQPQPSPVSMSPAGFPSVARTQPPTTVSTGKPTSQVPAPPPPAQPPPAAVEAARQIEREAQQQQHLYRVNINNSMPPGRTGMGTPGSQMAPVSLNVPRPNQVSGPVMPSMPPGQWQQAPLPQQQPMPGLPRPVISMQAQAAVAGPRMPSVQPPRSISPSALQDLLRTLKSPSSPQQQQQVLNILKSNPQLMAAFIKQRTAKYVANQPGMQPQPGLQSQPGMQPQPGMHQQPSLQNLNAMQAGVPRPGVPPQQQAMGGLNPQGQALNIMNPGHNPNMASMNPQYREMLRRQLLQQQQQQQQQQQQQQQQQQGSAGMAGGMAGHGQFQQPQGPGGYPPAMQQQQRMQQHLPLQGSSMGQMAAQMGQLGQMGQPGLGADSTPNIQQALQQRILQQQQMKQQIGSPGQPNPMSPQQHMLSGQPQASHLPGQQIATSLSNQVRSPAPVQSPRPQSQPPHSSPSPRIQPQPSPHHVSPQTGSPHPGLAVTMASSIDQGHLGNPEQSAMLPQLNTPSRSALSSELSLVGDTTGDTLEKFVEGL

[1] = biological target: Bromodomain-containing protein 4 (Homo sapiens, UniProt O60885); test: Inhibition of biotinylated-H4KAc4 binding to human His6-tagged BRD4 bromodomain-1 (N44 to E168 residues) expressed in Escherichia coli BL21(DE3) at 50 uM after 2.5 hrs by luminescence-based AlphaScreen assay relative to control
[2] = biological target: Bromodomain adjacent to zinc finger domain protein 2B (Homo sapiens, UniProt Q9UIF8); test: Inhibition of biotinylated-H4KAc4 binding to human His6-tagged BAZ2B (S1858 to S1972 residues) expressed in Escherichia coli BL21(DE3) at 50 uM after 2.5 hrs by luminescence-based AlphaScreen assay relative to control
Bromodomain adjacent to zinc finger domain protein 2B, sequence (Q9UIF8 whole entry, the tested form may be a part): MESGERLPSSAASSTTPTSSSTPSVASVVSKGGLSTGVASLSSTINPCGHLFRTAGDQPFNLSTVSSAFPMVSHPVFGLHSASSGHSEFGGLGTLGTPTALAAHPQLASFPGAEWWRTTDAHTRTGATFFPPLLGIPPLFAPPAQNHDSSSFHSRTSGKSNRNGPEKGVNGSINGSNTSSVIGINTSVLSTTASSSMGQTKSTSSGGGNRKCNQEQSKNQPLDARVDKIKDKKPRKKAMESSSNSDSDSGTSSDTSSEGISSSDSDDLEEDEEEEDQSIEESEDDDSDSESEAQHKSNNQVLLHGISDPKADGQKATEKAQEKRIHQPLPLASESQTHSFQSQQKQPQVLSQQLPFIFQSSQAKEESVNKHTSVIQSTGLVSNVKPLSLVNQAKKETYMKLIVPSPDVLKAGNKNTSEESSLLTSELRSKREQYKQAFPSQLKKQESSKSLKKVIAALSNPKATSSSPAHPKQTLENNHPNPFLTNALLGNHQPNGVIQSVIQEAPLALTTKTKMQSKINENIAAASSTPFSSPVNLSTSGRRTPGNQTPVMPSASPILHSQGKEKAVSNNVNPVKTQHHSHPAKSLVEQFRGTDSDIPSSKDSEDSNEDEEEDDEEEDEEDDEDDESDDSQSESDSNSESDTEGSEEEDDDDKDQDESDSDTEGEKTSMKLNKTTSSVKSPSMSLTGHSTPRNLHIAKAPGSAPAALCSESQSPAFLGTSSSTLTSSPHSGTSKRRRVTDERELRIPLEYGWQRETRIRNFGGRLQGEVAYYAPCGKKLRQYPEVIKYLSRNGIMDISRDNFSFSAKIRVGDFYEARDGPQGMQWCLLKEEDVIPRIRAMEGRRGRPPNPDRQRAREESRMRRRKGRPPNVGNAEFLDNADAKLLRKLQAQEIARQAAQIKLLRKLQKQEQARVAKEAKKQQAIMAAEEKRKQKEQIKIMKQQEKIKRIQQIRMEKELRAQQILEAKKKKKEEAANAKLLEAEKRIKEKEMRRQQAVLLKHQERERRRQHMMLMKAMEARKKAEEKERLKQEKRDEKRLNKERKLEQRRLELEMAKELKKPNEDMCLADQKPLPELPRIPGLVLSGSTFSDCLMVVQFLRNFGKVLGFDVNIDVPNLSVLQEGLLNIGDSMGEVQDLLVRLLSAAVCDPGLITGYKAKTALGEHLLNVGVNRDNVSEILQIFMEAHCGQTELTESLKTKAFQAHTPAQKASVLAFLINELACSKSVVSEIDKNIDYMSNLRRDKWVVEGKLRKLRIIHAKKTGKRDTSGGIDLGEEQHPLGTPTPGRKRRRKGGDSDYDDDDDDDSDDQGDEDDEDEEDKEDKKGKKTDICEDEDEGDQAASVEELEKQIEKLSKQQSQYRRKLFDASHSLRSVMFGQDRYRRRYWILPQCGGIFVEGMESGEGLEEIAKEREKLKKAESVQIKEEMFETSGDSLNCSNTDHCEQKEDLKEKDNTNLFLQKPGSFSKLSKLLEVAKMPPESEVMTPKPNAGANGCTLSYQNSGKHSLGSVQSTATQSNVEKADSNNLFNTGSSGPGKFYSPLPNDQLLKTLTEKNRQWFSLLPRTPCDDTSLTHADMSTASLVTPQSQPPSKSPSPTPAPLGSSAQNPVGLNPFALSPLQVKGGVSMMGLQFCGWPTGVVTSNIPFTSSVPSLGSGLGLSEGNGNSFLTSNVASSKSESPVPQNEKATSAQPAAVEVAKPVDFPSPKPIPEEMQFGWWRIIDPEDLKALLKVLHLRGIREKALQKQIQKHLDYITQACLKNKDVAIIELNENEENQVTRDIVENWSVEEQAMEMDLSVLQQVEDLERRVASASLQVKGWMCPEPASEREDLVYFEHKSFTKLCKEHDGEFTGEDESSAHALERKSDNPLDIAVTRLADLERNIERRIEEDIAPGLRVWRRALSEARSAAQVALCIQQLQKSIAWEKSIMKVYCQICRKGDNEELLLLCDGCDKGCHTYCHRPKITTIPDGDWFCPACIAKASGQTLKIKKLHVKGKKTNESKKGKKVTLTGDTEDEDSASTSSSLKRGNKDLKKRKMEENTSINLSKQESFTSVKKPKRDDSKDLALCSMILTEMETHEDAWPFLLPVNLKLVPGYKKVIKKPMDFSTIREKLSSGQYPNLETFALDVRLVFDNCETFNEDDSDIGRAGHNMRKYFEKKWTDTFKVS

[3] = biological target: T1, ATPase family AAA domain-containing protein 2 (Homo sapiens) (UniProt Q6PL18); test: Inhibition of biotinylated-H4KAc4 binding to human His6-tagged ATAD2 expressed in Escherichia coli BL21(DE3) at 50 uM after 2.5 hrs by luminescence-based AlphaScreen assay relative to control
T1 sequence (whole entry): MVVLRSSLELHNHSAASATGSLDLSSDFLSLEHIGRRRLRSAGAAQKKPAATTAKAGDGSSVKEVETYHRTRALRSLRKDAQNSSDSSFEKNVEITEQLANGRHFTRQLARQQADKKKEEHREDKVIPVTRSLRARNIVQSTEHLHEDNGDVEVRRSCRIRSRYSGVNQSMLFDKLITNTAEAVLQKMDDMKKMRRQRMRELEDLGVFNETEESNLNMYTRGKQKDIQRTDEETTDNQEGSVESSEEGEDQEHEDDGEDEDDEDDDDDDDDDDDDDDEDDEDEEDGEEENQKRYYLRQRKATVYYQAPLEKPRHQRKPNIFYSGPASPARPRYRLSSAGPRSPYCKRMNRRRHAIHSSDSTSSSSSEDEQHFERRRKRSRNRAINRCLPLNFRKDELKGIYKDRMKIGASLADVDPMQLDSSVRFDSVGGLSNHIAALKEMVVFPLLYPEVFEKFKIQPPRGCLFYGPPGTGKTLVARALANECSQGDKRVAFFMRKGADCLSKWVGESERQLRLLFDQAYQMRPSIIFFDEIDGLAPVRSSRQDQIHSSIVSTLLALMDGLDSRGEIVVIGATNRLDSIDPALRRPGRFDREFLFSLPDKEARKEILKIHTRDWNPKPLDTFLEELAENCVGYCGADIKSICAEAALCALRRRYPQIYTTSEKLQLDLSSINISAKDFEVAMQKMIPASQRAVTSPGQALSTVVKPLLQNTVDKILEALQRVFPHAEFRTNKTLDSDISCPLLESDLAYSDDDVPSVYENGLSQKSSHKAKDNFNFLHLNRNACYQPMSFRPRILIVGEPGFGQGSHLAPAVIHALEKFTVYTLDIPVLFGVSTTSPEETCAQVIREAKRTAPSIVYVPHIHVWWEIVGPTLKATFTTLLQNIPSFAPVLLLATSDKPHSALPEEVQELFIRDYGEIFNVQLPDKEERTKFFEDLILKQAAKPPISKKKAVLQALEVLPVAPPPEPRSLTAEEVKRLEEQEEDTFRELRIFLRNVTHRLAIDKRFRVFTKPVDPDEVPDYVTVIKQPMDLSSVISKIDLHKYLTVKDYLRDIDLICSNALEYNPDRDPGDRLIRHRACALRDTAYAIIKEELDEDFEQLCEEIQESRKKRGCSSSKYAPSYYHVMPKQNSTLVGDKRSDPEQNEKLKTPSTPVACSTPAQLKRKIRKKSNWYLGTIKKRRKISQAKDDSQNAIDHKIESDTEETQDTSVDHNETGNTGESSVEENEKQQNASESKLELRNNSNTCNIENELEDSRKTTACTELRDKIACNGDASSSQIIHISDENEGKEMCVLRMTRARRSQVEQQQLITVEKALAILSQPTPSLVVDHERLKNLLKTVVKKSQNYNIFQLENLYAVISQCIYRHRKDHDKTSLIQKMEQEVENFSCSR

LNCaP = test: Antiproliferative activity against human LNCAP cells after 72 hrs by Cell-Titer Glo assay; type: functional, cell-based; conditions: Homo sapiens, LNCaP, 72 h; read-out: IC50

IC50 (CREB-binding protein) [µM]	Structure (SMILES)	also measured
8.5	CC(=O)n1cc(C(=O)Nc2cc(C(=O)O)ccc2NC2CCOCC2)c2ccccc21	
3.39	COC(=O)c1cccc(NC(=O)c2cn(C(C)=O)c3ccccc23)c1	
4.7	CC(=O)n1cc(C(=O)Nc2cc(Br)cc(C(=O)O)c2)c2ccccc21	
4.11	CC(=O)n1cc(C(=O)Nc2cc(C(=O)O)ccc2NCc2ccccc2)c2ccccc21	
2.99	CC(=O)n1cc(C(=O)Nc2cc(C(=O)O)cc(C3CCCC3)c2)c2ccccc21	
1.69	CC(=O)n1cc(C(=O)Nc2cc(C(=O)O)cc(-c3cncc(C)c3)c2)c2ccccc21	
> 50	Nc1c(Nc2ccccc2)c2ccccc2oc1=O	inhibition [1]: 8%; inhibition [2]: 32%; inhibition [3]: 32%
0.17	CC(=O)n1cc(C(=O)Nc2cc(C(=O)O)cc(-c3ccco3)c2)c2cc(O)ccc21	
2.8	CCc1cc(NC(=O)c2cn(C(C)=O)c3ccccc23)cc(C(=O)O)c1	
2.33	CC(=O)n1cc(C(=O)Nc2cc(C(=O)O)ccc2NCC2CCCCC2)c2ccccc21	
2.48	CC(=O)n1cc(C(=O)Nc2cc(C(=O)O)cc(C3CCCCC3)c2)c2ccccc21	
16.7	CC(=O)c1cn(CCC(=O)O)c2ccccc12	inhibition [1]: 34%; inhibition [2]: 21%; inhibition [3]: 39%
> 50	O=C1N=CC(c2cccc([N+](=O)[O-])c2)c2ccccc21 (configuration not stated)	inhibition [1]: 23%; inhibition [2]: 59%; inhibition [3]: 87%
> 50	CC(=O)c1nn(-c2ccccc2)cc1C(=O)c1ccccc1	inhibition [1]: 27%; inhibition [2]: 21%; inhibition [3]: 35%
26.2	CCCOc1ccc2c(c1)c(C(=O)Nc1cc(C(=O)O)cc(-c3ccco3)c1)cn2C(C)=O	
> 50	Nc1c(N2CCCC2)c2ccccc2oc1=O	inhibition [1]: 47%; inhibition [2]: 69%; inhibition [3]: 52%
0.29	COc1ccc2c(c1)c(C(=O)Nc1cc(C(=O)O)cc(-c3ccc4c(cnn4C)c3)c1)cn2C(C)=O	
> 50	CC(=O)OCc1cn(C(C)=O)c2ccccc12	inhibition [1]: 17%; inhibition [2]: 10%; inhibition [3]: 32%
1.86	CC(=O)n1cc(C(=O)Nc2cc(C(=O)O)cc(-c3ccccc3)c2)c2ccccc21	
39.6	CCOC(=O)CCn1cc(C(C)=O)c2ccccc21	
6.36	CC(=O)n1cc(C(=O)Nc2cc(C(=O)O)ccc2NCC2CCOCC2)c2ccccc21	
> 50	CCCCNc1ccc(C(=O)O)cc1NC(=O)c1cn(C(C)=O)c2ccccc12	
9.11	CC(=O)n1ncc2c([N+](=O)[O-])cc([N+](=O)[O-])cc21	inhibition [1]: 98%; inhibition [2]: 97%; inhibition [3]: 98%
6.8	CC(=O)c1cn(CC(=O)N2CCC[C@H](C(=O)O)C2)c2ccccc12	
25.4	CC(=O)c1cccc(NC(=O)c2cn(C(C)=O)c3ccccc23)c1	
2.81	CC(=O)n1cc(C(=O)Nc2cc(C(=O)O)cc(-c3cc4ccccc4o3)c2)c2ccccc21	
> 50	CC(=O)c1nn(-c2ccccc2)c(C)c1C(C)=O	inhibition [1]: 5%; inhibition [2]: 6%; inhibition [3]: 19%

IC50 (CREB-binding protein) [µM]	Structure (SMILES)	also measured
3.39	CC(=O)n1cc(C(=O)Nc2cc(CC(C)C)cc(C(=O)O)c2)c2ccccc21	
4.84	CC(=O)n1cc(C(=O)Nc2cc(C(=O)O)ccc2NC2CC2)c2ccccc21	
1.89	CC(=O)n1cc(C(=O)Nc2cc(C(=O)O)ccc2NC2CCCC2)c2ccccc21	
7.09	COC(=O)[C@H]1CCCN(C(=O)Cn2cc(C(C)=O)c3ccccc32)C1	
19.8	COC(=O)C1CCN(C(=O)Cn2cc(C(C)=O)c3ccccc32)CC1	
33.8	CC(=O)NCCNC(=O)c1cn(C(C)=O)c2ccccc12	
3.52	CC(=O)n1cc(C(=O)Nc2cc(C(=O)O)cc(-c3cccc(F)c3)c2)c2ccccc21	
> 50	CC(=O)c1nn(-c2ccccc2)c2c1CCCC2	inhibition [1]: -2%; inhibition [3]: 6%
41.4	CC(=O)c1coc2c1cc(O)c1ccccc12	inhibition [1]: 51%; inhibition [2]: 36%; inhibition [3]: 55%
	CNC(=O)c1ccc(N2C(=S)N(c3ccc(C#N)c(C(F)(F)F)c3)C(=O)C2(C)C)cc1F [ENZALUTAMIDE]	IC50 (LNCaP): 33.8 µM
1.96	CC(=O)n1cc(C(=O)Nc2cc(CCc3ccccc3)cc(C(=O)O)c2)c2ccccc21	
21.6	CC(=O)n1cc(C(=O)Nc2cc(C(=O)O)ccc2NCC2CC2)c2ccccc21	
6.56	CCCNc1ccc(C(=O)O)cc1NC(=O)c1cn(C(C)=O)c2ccccc12	
13.6	CC(=O)c1cn(CC(=O)N2CCC(C(=O)O)CC2)c2ccccc12	
2.74	CC(=O)n1cc(C(=O)Nc2cc(C(=O)O)cc(C3CC3)c2)c2ccccc21	
1	CC(=O)n1cc(C(=O)Nc2cc(C(=O)O)cc(-c3ccc4c(cnn4C)c3)c2)c2ccccc21	
3.89	CCOc1ccc2c(c1)c(C(=O)Nc1cc(C(=O)O)cc(-c3ccco3)c1)cn2C(C)=O	
1.44	CC(=O)n1cc(C(=O)Nc2cc(C(=O)O)cc(-c3cccc(Cl)c3)c2)c2ccccc21	
4.05	CC(=O)n1cc(C(=O)Nc2cc(C(=O)O)cc(-c3cccc(C(F)(F)F)c3)c2)c2ccccc21	
2.07	COc1cccc(-c2cc(NC(=O)c3cn(C(C)=O)c4ccccc34)cc(C(=O)O)c2)c1	
> 50	CC(=O)n1c(C#N)nc2ccccc21	inhibition [1]: 20%; inhibition [2]: 24%; inhibition [3]: 29%
> 50	Cn1nc(-c2ccc(Cl)cc2)c2ccccc2c1=O	inhibition [1]: 57%; inhibition [2]: 34%; inhibition [3]: 49%
32.6	CC(=O)n1cc(C(=O)NCCN2CCNC2=O)c2ccccc21	
1.67	CC(=O)n1cc(C(=O)Nc2cc(C(=O)O)ccc2NC2CCCCCC2)c2ccccc21	
> 50	CC(=O)Nc1ccc2c(c1)c1ccccc1n2C(C)=O	inhibition [1]: -3%; inhibition [2]: 10%; inhibition [3]: 4%
0.69	COc1ccc2c(c1)c(C(=O)Nc1cc(C(=O)O)cc(-c3ccc4c(c3)OCCO4)c1)cn2C(C)=O	
2.33	CC(=O)n1cc(C(=O)Nc2cc(C(=O)O)ccc2NCC(C)C)c2ccccc21	
